The text below walks through data of ChEMBL document CHEMBL1667853, “Design and synthesis of potent Gram-negative specific LpxC inhibitors” (Bioorg Med Chem Lett, 2011).

Each structure is given as a SMILES string. In brackets after ≈: the same amount, converted by molar mass. A value given as a limit tells only on which side of the number the result lay.

One test has as its system Serratia marcescens. Nature of the test: Antimicrobial activity against wild type Serratia marcescens by broth dilution assay. It counts as functional. A general note: Broth dilution looks for growth in wells or tubes with falling amounts of substance.
A further test deals with Enterobacter cloacae. Nature of the test: Antimicrobial activity against ESBL producing Enterobacter cloacae by broth dilution assay. The format is functional.
Test [1] deals with Pseudomonas aeruginosa. Put plainly: Antimicrobial activity against wild type Pseudomonas aeruginosa by broth dilution assay. It counts as functional.
For test [2], the system named is Klebsiella pneumoniae. Put plainly: Antimicrobial activity against ESBL producing Klebsiella pneumoniae by broth dilution assay. It counts as functional.
In test [3] the test system is Escherichia coli. Nature of the test: Antimicrobial activity against ESBL producing Escherichia coli by broth dilution assay. The format is functional.
Test [4] concerns Acinetobacter calcoaceticus. Put plainly: Antimicrobial activity against wild type Acinetobacter calcoaceticus by broth dilution assay. It counts as functional.
The next test relates to Proteus vulgaris. Put plainly: Antimicrobial activity against wild type Proteus vulgaris by broth dilution assay. It counts as functional.
Test [5] relates to Escherichia coli. Put plainly: Antimicrobial activity against wild type Escherichia coli by broth dilution assay. It counts as functional.
For test [6], the system named is Escherichia coli. Nature of the test: Antimicrobial activity against Escherichia coli ATCC 25922 by broth dilution assay. The format is functional.
Test [7] concerns Pseudomonas aeruginosa. Nature of the test: Antimicrobial activity against multidrug-resistant Pseudomonas aeruginosa by broth dilution assay. The format is functional.
For test [8], the system named is Klebsiella pneumoniae. Nature of the test: Antimicrobial activity against wild type Klebsiella pneumoniae by broth dilution assay. The format is functional.
The test system of the next test is Klebsiella aerogenes. Nature of the test: Antimicrobial activity against wild type Enterobacter aerogenes by broth dilution assay. The format is functional.
In test [9] the test system is Stenotrophomonas maltophilia. Put plainly: Antimicrobial activity against wild type Stenotrophomonas maltophilia by broth dilution assay. It counts as functional.
For test [10], the target named is T1, UDP-3-O-acyl-N-acetylglucosamine deacetylase (Escherichia coli K-12, UniProt P0A725).
T1 sequence (P0A725 whole entry): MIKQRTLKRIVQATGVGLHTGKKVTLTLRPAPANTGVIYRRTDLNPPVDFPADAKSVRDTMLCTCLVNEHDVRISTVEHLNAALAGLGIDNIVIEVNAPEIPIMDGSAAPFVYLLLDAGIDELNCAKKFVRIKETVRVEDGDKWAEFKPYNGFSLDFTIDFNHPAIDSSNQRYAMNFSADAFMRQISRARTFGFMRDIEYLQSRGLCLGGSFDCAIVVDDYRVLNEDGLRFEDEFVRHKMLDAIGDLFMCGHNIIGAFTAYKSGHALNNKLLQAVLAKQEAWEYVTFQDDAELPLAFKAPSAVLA
Nature of the test: Inhibition of Escherichia coli LpxC.

For test [11], the system named is Escherichia coli. Put plainly: Antimicrobial activity against Escherichia coli HS294 by broth dilution assay. It counts as functional.
For the next test, the system named is Acinetobacter baumannii. Nature of the test: Antimicrobial activity against wild type Acinetobacter baumannii by broth dilution assay. The format is functional.
Test [12] concerns Escherichia coli. Nature of the test: Antimicrobial activity against multidrug-resistant Escherichia coli by broth dilution assay. The format is functional.
Test [13] in a line: Inhibition of Aquifex aeolicus LpxC.

Turning to `CC(C)(O)[C@@H](NC(=O)N1CCN(c2ccc(C#Cc3ccccc3)cc2)CC1)C(=O)NO`, the MIC (in general, the lowest concentration found to suppress growth) is 6.25 µg/mL (≈ 14.3 µM) against Serratia marcescens; 6.25 µg/mL (≈ 14.3 µM) against Enterobacter cloacae; above 50 µg/mL against Pseudomonas aeruginosa [1]; 6.25 µg/mL (≈ 14.3 µM) in the test on Klebsiella pneumoniae [2]; 1.56 µg/mL (≈ 3.57 µM) against Escherichia coli [3]; 25 µg/mL (≈ 57.3 µM) in [4]. Moreover, the MIC against Proteus vulgaris turned out to be 3.13 µg/mL (≈ 7.17 µM); against Escherichia coli [5], 0.8 µg/mL (≈ 1.83 µM); in the test with Escherichia coli [6] it was 0.8 µg/mL (≈ 1.83 µM); with Pseudomonas aeruginosa [7] it was 6.25 µg/mL (≈ 14.3 µM); against Klebsiella pneumoniae [8] it was 12.5 µg/mL (≈ 28.6 µM); in the test with Klebsiella aerogenes, 12.5 µg/mL (≈ 28.6 µM). The minimum inhibitory concentration (MIC) in test [9] was 25 µg/mL (≈ 57.3 µM); in the test on Escherichia coli [11] it was 0.1 µg/mL (≈ 0.229 µM); against Acinetobacter baumannii, above 50 µg/mL; in the test with Escherichia coli [12] it was 1.56 µg/mL (≈ 3.57 µM). Moreover, the IC50 (usually the point on the concentration scale where inhibition reaches its midpoint) in test [10] is 0.0003 µM.
Turning to `C[C@@H](O)[C@@H](NC(=O)c1ccc(C#Cc2ccccc2)cc1)C(=O)NO`, the minimum inhibitory concentration (MIC) in the test on Serratia marcescens was 1.25 µg/mL (≈ 3.69 µM); in the test with Enterobacter cloacae, 0.31 µg/mL (≈ 0.916 µM); in the test with Pseudomonas aeruginosa [1] it was 10 µg/mL (≈ 29.6 µM); in the test on Klebsiella pneumoniae [2], 0.63 µg/mL (≈ 1.86 µM); against Escherichia coli [3] it was 0.313 µg/mL (≈ 0.925 µM); in test [4] it was 1.25 µg/mL (≈ 3.69 µM). The MIC in the test on Proteus vulgaris stood at 1.25 µg/mL (≈ 3.69 µM); against Escherichia coli [5], 0.16 µg/mL (≈ 0.473 µM); against Escherichia coli [6], 0.08 µg/mL (≈ 0.236 µM); with Pseudomonas aeruginosa [7], 0.63 µg/mL (≈ 1.86 µM); in the test on Klebsiella pneumoniae [8], 1.25 µg/mL (≈ 3.69 µM); against Klebsiella aerogenes, 2.5 µg/mL (≈ 7.39 µM). The MIC is 5 µg/mL (≈ 14.8 µM) in [9], 0.02 µg/mL (≈ 0.0591 µM) in the test with Escherichia coli [11], above 20 µg/mL in the test on Acinetobacter baumannii and 0.63 µg/mL (≈ 1.86 µM) in the test with Escherichia coli [12].
Turning to `CC[C@H]1OC(=O)[C@H](C)[C@@H](O[C@H]2C[C@@](C)(OC)[C@@H](O)[C@H](C)O2)[C@H](C)[C@@H](O[C@@H]2O[C@H](C)C[C@H](N(C)C)[C@H]2O)[C@](C)(O)C[C@@H](C)CN(C)[C@H](C)[C@@H](O)[C@]1(C)O` [AZITHROMYCIN], the MIC was found to be 4 µg/mL (≈ 5.34 µM) against Pseudomonas aeruginosa [1], 32 µg/mL (≈ 42.7 µM) in the test with Pseudomonas aeruginosa [7] and 32 µg/mL (≈ 42.7 µM) with Escherichia coli [12].
With `CCCCCCCOc1cccc(C(=O)O)c1`, the Kd (commonly a measure of binding affinity in units of concentration) in [13] came to 2 µM.
Take `O=C(N[C@H](CO)[C@H](O)c1ccc([N+](=O)[O-])cc1)C(Cl)Cl` [CHLORAMPHENICOL]: the minimum inhibitory concentration (MIC) with Pseudomonas aeruginosa [1] was 2 µg/mL (≈ 6.19 µM); against Escherichia coli [5], 2 µg/mL (≈ 6.19 µM); in the test with Pseudomonas aeruginosa [7], above 256 µg/mL; against Escherichia coli [12] it was above 32 µg/mL.
In the case of `CN(C)[C@@H]1C(O)=C(C(N)=O)C(=O)[C@@]2(O)C(O)=C3C(=O)c4c(O)cccc4[C@@](C)(O)[C@H]3C[C@@H]12` [TETRACYCLINE], the MIC is 1 µg/mL (≈ 2.25 µM) with Pseudomonas aeruginosa [1], 1 µg/mL (≈ 2.25 µM) in the test with Escherichia coli [5], 16 µg/mL (≈ 36 µM) in the test with Pseudomonas aeruginosa [7] and above 2 µg/mL against Escherichia coli [12].
As for `CC1(C)S[C@@H]2[C@H](NC(=O)[C@H](N)c3ccccc3)C(=O)N2[C@H]1C(=O)O` [AMPICILLIN], the minimum inhibitory concentration (MIC) in the test with Enterobacter cloacae is above 32 µg/mL; against Pseudomonas aeruginosa [1] it was 4 µg/mL (≈ 11.4 µM); against Klebsiella pneumoniae [2] it was above 32 µg/mL; against Escherichia coli [3] it was above 32 µg/mL; in the test with Escherichia coli [5] it was 4 µg/mL (≈ 11.4 µM); against Pseudomonas aeruginosa [7] it was above 256 µg/mL. For the same compound, the values for the minimal inhibitory concentration (MIC) (against Klebsiella pneumoniae [8]; in [9]; in the test with Escherichia coli [12]) were above 32 µg/mL, above 32 µg/mL and above 8 µg/mL, respectively.
In the case of `C[C@@H](N)[C@@H](NC(=O)N1CCN(c2ccc(C#Cc3ccccc3)cc2)CC1)C(=O)NO`, the MIC against Serratia marcescens was 12.5 µg/mL (≈ 29.7 µM); against Enterobacter cloacae it was 3.13 µg/mL (≈ 7.43 µM); against Pseudomonas aeruginosa [1], 12.5 µg/mL (≈ 29.7 µM); in the test on Klebsiella pneumoniae [2] it was 12.5 µg/mL (≈ 29.7 µM); with Escherichia coli [3], 1.56 µg/mL (≈ 3.7 µM); in test [4] it was 25 µg/mL (≈ 59.3 µM). Moreover, the MIC was determined as 6.25 µg/mL (≈ 14.8 µM) in the test on Proteus vulgaris; 1.56 µg/mL (≈ 3.7 µM) against Escherichia coli [5]; 1.56 µg/mL (≈ 3.7 µM) in the test with Escherichia coli [6]; 3.13 µg/mL (≈ 7.43 µM) in the test on Pseudomonas aeruginosa [7]; 25 µg/mL (≈ 59.3 µM) against Klebsiella pneumoniae [8]; 25 µg/mL (≈ 59.3 µM) against Klebsiella aerogenes. Besides, the MIC in [9] is above 50 µg/mL; in the test with Escherichia coli [11], 0.4 µg/mL (≈ 0.949 µM); against Acinetobacter baumannii, 25 µg/mL (≈ 59.3 µM); with Escherichia coli [12] it was 3.13 µg/mL (≈ 7.43 µM). This compound also showed a half-inhibitory concentration (IC50) in [10] of 0.0006 µM.
As to `C[C@@H](O)[C@@H](NC(=O)N1CCC(c2ccc(-c3ccccc3)cc2)CC1)C(=O)NO`, the minimal inhibitory concentration (MIC) was 6.25 µg/mL (≈ 15.7 µM) against Serratia marcescens; 3.13 µg/mL (≈ 7.87 µM) with Enterobacter cloacae; 3.13 µg/mL (≈ 7.87 µM) in the test with Pseudomonas aeruginosa [1]; 12.5 µg/mL (≈ 31.4 µM) against Klebsiella pneumoniae [2]; 3.13 µg/mL (≈ 7.87 µM) in the test on Escherichia coli [3]; above 100 µg/mL in [4]. Besides, the minimal inhibitory concentration (MIC) was 3.13 µg/mL (≈ 7.87 µM) in the test on Proteus vulgaris; 1.56 µg/mL (≈ 3.92 µM) with Escherichia coli [5]; 6.25 µg/mL (≈ 15.7 µM) against Escherichia coli [6]; above 12.5 µg/mL in the test on Pseudomonas aeruginosa [7]; above 100 µg/mL against Klebsiella pneumoniae [8]; above 100 µg/mL against Klebsiella aerogenes. For the same compound, the minimum inhibitory concentration (MIC) was above 100 µg/mL in [9], 0.8 µg/mL (≈ 2.01 µM) in the test with Escherichia coli [11], above 100 µg/mL against Acinetobacter baumannii and 3.13 µg/mL (≈ 7.87 µM) with Escherichia coli [12]. Besides, it took 0.0138 µM to reach half-maximal inhibition in test [10] (IC50).
Consider `O=C(O)c1cn(C2CC2)c2cc(N3CCNCC3)c(F)cc2c1=O` [CIPROFLOXACIN], for which the minimal inhibitory concentration (MIC) is 0.012 µg/mL (≈ 0.0362 µM) in the test with Pseudomonas aeruginosa [1]; above 8 µg/mL against Pseudomonas aeruginosa [7]; 1 µg/mL (≈ 3.02 µM) against Klebsiella pneumoniae [8]; 0.016 µg/mL (≈ 0.0483 µM) in [9]; above 32 µg/mL in the test on Escherichia coli [12].
Turning to `C[C@@H](O)[C@@H](NC(=O)N1CCN(c2ccc(C#Cc3ccc(CO)cc3)cc2)CC1)C(=O)NO`, the results for the MIC in the test with Escherichia coli [6] and in the test with Escherichia coli [11] were 12.5 µg/mL (≈ 27.6 µM) and 0.4 µg/mL (≈ 0.884 µM), respectively. Also, the half-inhibitory concentration (IC50) in test [10] is 0.012 µM.
